Where a name gives a salt, the structure may show the parent alone. Read-outs that look alike come from different tables or passages of the source.
How the values were obtained:
[1] = system: TGF-beta 1 stimulated SBE-b1a HEK 293T cells; assay: GeneBLAzer beta-lactamase reporter, TGF-beta 1 stimulated SBE-b1a HEK 293T cell-based assay (ThermoFisher SelectScreen); conditions: Homo sapiens, HEK-293T; TGF-beta 1 0.03 nM, 5 hours; inhibitor 10,000 nM to 0.316 nM; sigmoidal dose response curve fit; read-out: Cells (SBE_HEK293T) IC50
Description: (§1) Exemplified compounds were confirmed to inhibit ALK5 activity in enzyme and cellular assays in the following assay systems conducted by ThermoFisher in Madison, Wis. according to their commercially available protocols.
ThermoFisher SelectScreen™ Cell-Based Pathway Profiling Service GeneBLAzer Beta-Lactamase (b1a) Reporter Technology—TGF-Beta 1 Stimulated SBE-b1a HEK 293T Cell-Based Assay
SBE-b1a HEK 293T cells were thawed and re-suspended in Assay Media (OPTI-MEM, 0.5% dialyzed FBS, 0.1 mM NEAA, 1 mM Sodium Pyruvate, 100 U/mL/100 μg/mL Pen/Strep) to a concentration of 625,000 cells/mL. 32 μL of cell suspension (20,000 cells) was added to each well of a 384-well Poly-D-Lysine assay plate. Cells in Assay Media were incubated for 16-24 hours in the plate at 37° C./5% CO2 in a humidified incubator. 4 μL of a 10× serial dilution of ALK5 inhibitors (10x=100,000-3.16 nM) was added to appropriate wells of the plate and pre-incubated at 37° C./5% CO2 in a humidified incubator with cells for 30 minutes. Final concentration of inhibitor ranged from 10,000 nM to 0.316 nM. 4 μL of 10× TGF-beta 1 (final concentration of 0.03 nM) was added to wells containing the inhibitors. The plate was incubated for 5 hours at 37° C./5% CO2 in a humidified incubator. 8 μL of 1 μM Substrate Loading Solution was added to each well and the plate was incubated for 2 hours at room temperature before being read on a fluorescence plate reader. Percent inhibition was determined compared to DMSO only control (maximal TGF-beta 1 stimulation) and sigmoidal dose response curve fit yielded IC50 values as indicated in Table 2.

[2] = biological target: TGFBR1 (ALK5) (Homo sapiens (Human), UniProt P36897); assay: LanthaScreen Eu Kinase Binding Assay TGFBR1 (ALK5) (ThermoFisher SelectScreen); conditions: read-out: TβRI (ALK5) Binding IC50
Description: as §1
ThermoFisher SelectScreen™ Biochemical Kinase Profiling Service, LanthaScreen™Eu Kinase Binding Assay TGFBR1 (ALK5)
Exemplified compounds were screened in 1% DMSO (final concentration) by 3-fold serial dilutions from 10,000 nM to 0.316 nM to produce an IC50 or at single concentrations of 10,000, 1000 and 100 nM according to the following protocol. To low volume, white 384-well plates (Greiner Cat #784207) add 160 nL 100× compound in 100% DMSO, 3.84 uL kinase buffer (50 mM HEPES, pH 7.5, 0.01% BRIJ-35, 10 mM MgCl2, 1 mM EGTA), 8 uL 2× kinase/antibody mixture in kinase buffer (final ALK5 concentration of 5 nM; final Eu-anti-GST antibody concentration of 2 nM), 4 uL 4× Tracer #178 in kinase buffer (final concentration of 5 nM). Gently shake the plates for 30 seconds and incubate at room temperature for 1 hour before reading fluorescence on a plate reader. Percent inhibition was determined compared to DMSO only control (maximal ALK5 tracer binding) and sigmoidal dose response curve fit yielded IC50 values as indicated in Table 2.

[3] = compounds marked with an asterisk: evaluated at three concentrations, IC50 depicted as less than the lowest concentration producing >50% inhibition
[4] = 3-fold serial dilutions 10,000 nM to 0.316 nM, ALK5 5 nM, Tracer #178 5 nM, sigmoidal dose response curve fit

TGFBR1 (ALK5), sequence (P36897 34-503): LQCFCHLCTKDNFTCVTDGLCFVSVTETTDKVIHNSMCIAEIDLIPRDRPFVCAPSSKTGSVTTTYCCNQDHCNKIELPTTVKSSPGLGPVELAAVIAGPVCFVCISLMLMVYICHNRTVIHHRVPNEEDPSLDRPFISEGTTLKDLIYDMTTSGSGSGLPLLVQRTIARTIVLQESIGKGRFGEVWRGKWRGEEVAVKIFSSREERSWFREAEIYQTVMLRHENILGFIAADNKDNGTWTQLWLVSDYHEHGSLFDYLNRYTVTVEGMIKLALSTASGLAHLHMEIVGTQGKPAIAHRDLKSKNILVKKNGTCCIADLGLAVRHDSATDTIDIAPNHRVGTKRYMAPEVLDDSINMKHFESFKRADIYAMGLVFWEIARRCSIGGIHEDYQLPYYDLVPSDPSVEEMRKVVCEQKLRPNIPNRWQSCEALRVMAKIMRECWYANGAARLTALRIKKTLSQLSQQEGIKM

Row | SMILES | IC50 [1] | IC50 [2, 3] | IC50 [2, 4]
1 | CC(C)n1ccc(-c2nc(CNc3cccc(C(N)=O)c3)[nH]c2-c2ccc3ncnn3c2)n1 [Compound 29, 3-(((5-([1,2,4]triazolo[1,5-a]pyridin-6-yl)-4-(1-isopropyl-1H-pyrazol-3-yl)-1H-imidazol-2-yl)methyl)amino)benzamide] | 4.62 µM | < 0.1 µM | –
2 | CC(C)n1ccc(-c2nc(CNc3cccc(C#N)c3)[nH]c2-c2ccc3ncnn3c2)n1 [Compound 28] | 0.757 µM | < 0.1 µM | –
3 | Cn1ccc(-c2nc(-c3ccc(C(N)=O)cc3)[nH]c2-c2ccc3nccnc3c2)n1 [Compound 43] | 0.485 µM | < 0.1 µM | –
4 | CC(C)n1ccc(-c2nc(CNc3cccc(F)c3)[nH]c2-c2ccc3ncc(C(N)=O)n3n2)n1 [Compound 34] | 0.379 µM | – | 0.049 µM
5 | CC(C)n1ccc(-c2nc(CNc3cccc(C#N)c3)[nH]c2-c2ccc3ncc(C(N)=O)n3n2)n1 [Compound 38] | 3.18 µM | < 0.1 µM | –
6 | Cn1ccc(-c2nc(CNc3cccc(C#N)c3)[nH]c2-c2ccc3ncnn3c2)n1 [Compound 16, 3-(((5-([1,2,4]triazolo[1,5-a]pyridin-6-yl)-4-(1-methyl-1H-pyrazol-3-yl)-1H-imidazol-2-yl)methyl)amino)benzonitrile hydrochloride] | 3.57 µM | < 1 µM | –
7 | CCNC(=O)c1ccc(-c2nc(-c3ccn(C)n3)c(-c3ccc4ncsc4c3)[nH]2)cc1 [Compound 65] | 0.654 µM | – | 0.0462 µM
8 | CC(C)n1ccc(-c2nc(CNc3cccc(F)c3)[nH]c2-c2ccc3nccnc3c2)n1 [Compound 22, 3-fluoro-N-((4-(1-isopropyl-1H-pyrazol-3-yl)-5-(quinoxalin-6-yl)-1H-imidazol-2-yl)methyl)aniline hydrochloride] | 1.09 µM | < 0.1 µM | –
9 | Cn1ccc(-c2nc(CNc3cccc(F)c3)[nH]c2-c2ccc3ncnn3c2)n1 [Compound 6, N-((5-([1,2,4]triazolo[1,5-a]pyridin-6-yl)-4-(1-methyl-1H-pyrazol-3-yl)-1H-imidazol-2-yl)methyl)-3-fluoroaniline hydrochloride] | 3.87 µM | – | 0.354 µM
10 | CNC(=O)c1ccc(-c2nc(-c3ccn(C)n3)c(-c3ccc4ncsc4c3)[nH]2)cc1 [Compound 64, 4-(5-(benzo[d]thiazol-6-yl)-4-(1-methyl-1H-pyrazol-3-yl)-1H-imidazol-2-yl)-N-methylbenzamide] | 0.632 µM | – | 0.0446 µM
11 | CC(C)n1ccc(-c2nc(CNc3cccc(Cl)c3)[nH]c2-c2ccc3nccnc3c2)n1 [Compound 54] | 0.211 µM | – | 0.0312 µM
12 | CC(C)n1ccc(-c2nc(CNc3ccccc3)[nH]c2-c2ccc3ncnn3c2)n1 [Compound 10, N-((5-([1,2,4]triazolo[1,5-a]pyridin-6-yl)-4-(1-isopropyl-1H-pyrazol-3-yl)-1H-imidazol-2-yl)methyl)aniline hydrochloride] | 2.67 µM | – | 0.264 µM
13 | CC(C)n1ccc(-c2nc(CNc3cccc(-n4cccn4)c3)[nH]c2-c2ccc3nccnc3c2)n1 [Compound 40] | 1.05 µM | < 0.1 µM | –
